The text below walks through data of patent US9150577B2, “Heterocyclic compounds containing an indole core” (Boehringer Ingelheim International GmbH, priority 2009, dated 2015).

Human RSK2, sequence (P51812 whole entry): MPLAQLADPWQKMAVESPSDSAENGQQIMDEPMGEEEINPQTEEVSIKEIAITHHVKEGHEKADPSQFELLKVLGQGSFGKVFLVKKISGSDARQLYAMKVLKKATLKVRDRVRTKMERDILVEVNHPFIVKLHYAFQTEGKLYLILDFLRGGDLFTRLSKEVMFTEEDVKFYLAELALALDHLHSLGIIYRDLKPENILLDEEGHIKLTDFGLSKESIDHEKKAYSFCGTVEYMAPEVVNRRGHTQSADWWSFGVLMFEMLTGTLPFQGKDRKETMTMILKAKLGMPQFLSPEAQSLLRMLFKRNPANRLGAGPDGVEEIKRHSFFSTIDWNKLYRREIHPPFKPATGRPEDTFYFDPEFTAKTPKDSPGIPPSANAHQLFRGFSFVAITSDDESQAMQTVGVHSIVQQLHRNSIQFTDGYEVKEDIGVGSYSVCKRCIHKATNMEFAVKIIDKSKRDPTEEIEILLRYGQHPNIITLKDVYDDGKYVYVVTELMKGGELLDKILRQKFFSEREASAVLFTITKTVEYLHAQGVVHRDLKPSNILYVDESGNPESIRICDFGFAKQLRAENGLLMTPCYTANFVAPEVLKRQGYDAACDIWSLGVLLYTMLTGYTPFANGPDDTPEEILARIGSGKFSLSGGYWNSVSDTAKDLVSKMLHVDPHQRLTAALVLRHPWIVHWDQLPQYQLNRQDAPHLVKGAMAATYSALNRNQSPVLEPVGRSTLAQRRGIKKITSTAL

This assay addresses Human RSK2 (Homo sapiens (Human), UniProt P51812). Briefly: Human RSK2 assay (Kinase Glo Plus, residual ATP).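 Also: recombinant human RSK2 phosphorylating a substrate peptide, 90 min at 28 °C, leftover ATP read by luminescence, RLU scaled between no-kinase background and uninhibited kinase controls, 4-parameter fit.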 The assay is classed as biochemical.
With `C[C@H]1NC(=O)c2cc3ccc(C(=O)Nc4cnn(Cc5ccccc5)c4)cc3n2[C@H]1C` [Example 142, (3R,4S)-N-(1-benzyl-1H-pyrazol-4-yl)-3,4-dimethyl-1-oxo-1,2,3,4-tetrahydropyrazino[1,2-a]indole-7-carboxamide], the IC50 came to 65.5 nM.

For `CC1CNC(=O)c2cc3ccc(C(=O)Nc4cc5ccccc5[nH]4)cc3n21` (stereo not shown) [Example 177, N-(1H-indol-2-yl)-4-methyl-1-oxo-1,2,3,4-tetrahydropyrazino[1,2-a]indole-7-carboxamide], the half-inhibitory concentration (IC50) came out at 8 nM. Next, `O=C(Nc1ncc[nH]1)c1ccc2cc3n(c2c1)CCCNC3=O` [Example 108, N-(1H-imidazol-2-yl)-1-oxo-2,3,4,5-tetrahydro-1H-[1,4]diazepino[1,2-a]indole-8-carboxamide]: 25.5 nM; `CC(C)(C)c1cnc(NC(=O)c2ccc3cc4n(c3c2)CCCNC4=O)o1` [Example 111, N-(5-tert-butyl-1,3-oxazol-2-yl)-1-oxo-2,3,4,5-tetrahydro-1H-[1,4]diazepino[1,2-a]indole-8-carboxamide]: 1800 nM. Next, `CCn1c(NC(=O)c2ccc3cc4n(c3c2)[C@@H](C)[C@@H](C)NC4=O)nc2ccccc21` (relative stereo) [Example 79, N-(1-ethyl-1H-benzimidazol-2-yl)-cis-3,4-dimethyl-1-oxo-1,2,3,4-tetrahydropyrazino[1,2-a]indole-7-carboxamide]: 0.64 nM; `O=C(Nc1cn[nH]c1)c1ccc2cc3n(c2c1)CCCNC3=O` [Example 15, 1-oxo-N-(1H-pyrazol-4-yl)-2,3,4,5-tetrahydro-1H-[1,4]diazepino[1,2-a]indole-8-carboxamide]: 43 nM.

As to `CC1(C)CNC(=O)c2cc3ccc(C(=O)Nc4cc(-c5ccccc5)no4)cc3n21` [Example 201, 4,4-dimethyl-1-oxo-N-(3-phenyl-1,2-oxazol-5-yl)-1,2,3,4-tetrahydropyrazino[1,2-a]indole-7-carboxamide], the concentration for half-maximal inhibition (IC50) was 15 nM. In the case of `O=C(Nc1cnc2ccccc2c1)c1ccc2cc3n(c2c1)CCCNC3=O` [Example 190, 1-oxo-N-(quinolin-3-yl)-2,3,4,5-tetrahydro-1H-[1,4]diazepino[1,2-a]indole-8-carboxamide], the IC50 is 34 nM. As to `O=C(Nc1ccn(Cc2ccc(F)cc2)n1)c1ccc2cc3n(c2c1)CCCNC3=O` [Example 12, N-[1-(4-fluorobenzyl)-1H-pyrazol-3-yl]-1-oxo-2,3,4,5-tetrahydro-1H-[1,4]diazepino[1,2-a]indole-8-carboxamide], the 50% inhibitory concentration (IC50) worked out at 220 nM. The result for `O=C(Nc1nc2cc(Cl)ccc2[nH]1)c1ccc2cc3n(c2c1)CCCNC3=O` [Example 47, N-(5-chloro-1H-benzimidazol-2-yl)-1-oxo-2,3,4,5-tetrahydro-1H-[1,4]diazepino[1,2-a]indole-8-carboxamide] reads 8 nM; that for `CCc1cc(NC(=O)c2ccc3cc4n(c3c2)CCCNC4=O)no1` [Example 181, N-(5-ethyl-1,2-oxazol-3-yl)-1-oxo-2,3,4,5-tetrahydro-1H-[1,4]diazepino[1,2-a]indole-8-carboxamide], 34.5 nM; that for `CC(C)n1c(NC(=O)c2ccc3cc4n(c3c2)C(C)CCNC4=O)nc2ccccc21` (stereo not shown) [Example 165, 5-methyl-1-oxo-N-[1-(propan-2-yl)-1H-benzimidazol-2-yl]-2,3,4,5-tetrahydro-1H-[1,4]diazepino[1,2-a]indole-8-carboxamide], 1.8 nM. Next, `CN(C)CCCn1cc(NC(=O)c2ccc3cc4n(c3c2)CCCNC4=O)cn1` [Example 36, N-{1-[3-(dimethylamino)propyl]-1H-pyrazol-4-yl}-1-oxo-2,3,4,5-tetrahydro-1H-[1,4]diazepino[1,2-a]indole-8-carboxamide]: 84 nM; `CC1CNC(=O)c2cc3ccc(C(=O)Nc4cn[nH]c4)cc3n2C1` (stereo not shown) [Example 17, 4-methyl-1-oxo-N-(1H-pyrazol-4-yl)-2,3,4,5-tetrahydro-1H-[1,4]diazepino[1,2-a]indole-8-carboxamide]: 145 nM. Regarding `Cc1cc(NC(=O)c2ccc3cc4n(c3c2)CC(C)CNC4=O)no1` (stereo not shown) [Example 182, 4-methyl-N-(5-methyl-1,2-oxazol-3-yl)-1-oxo-2,3,4,5-tetrahydro-1H-[1,4]diazepino[1,2-a]indole-8-carboxamide], the half-inhibitory concentration (IC50) was 150 nM. Next, `CC(C)(CO)c1cc(NC(=O)c2ccc3cc4n(c3c2)CCCNC4=O)on1` [Example 208, N-[3-(1-hydroxy-2-methylpropan-2-yl)-1,2-oxazol-5-yl]-1-oxo-2,3,4,5-tetrahydro-1H-[1,4]diazepino[1,2-a]indole-8-carboxamide]: 96 nM; `O=C(Nc1cnn(Cc2ccccc2)c1)c1ccc2cc3n(c2c1)CC1(CC1)CNC3=O` [Example 125, N-(1-benzyl-1H-pyrazol-4-yl)-1′-oxo-2′,3′-dihydro-1′H-spiro[cyclopropane-1,4′-[1,4]diazepino[1,2-a]indole]-8′-carboxamide]: 11 nM. Next, `CCCNC(=O)c1nc(NC(=O)c2ccc3cc4n(c3c2)C(C)CNC4=O)sc1C(C)C` (stereo not shown) [Example 235, 4-methyl-1-oxo-N-[5-(propan-2-yl)-4-(propylcarbamoyl)-1,3-thiazol-2-yl]-1,2,3,4-tetrahydropyrazino[1,2-a]indole-7-carboxamide]: 10.9 nM; `CC(C)(O)Cn1c(NC(=O)c2ccc3cc4n(c3c2)CCCNC4=O)nc2ccccc21` [Example 85, N-[1-(2-hydroxy-2-methylpropyl)-1H-benzimidazol-2-yl]-1-oxo-2,3,4,5-tetrahydro-1H-[1,4]diazepino[1,2-a]indole-8-carboxamide]: 5.4 nM.

As to `C[C@H]1NC(=O)c2cc3ccc(C(=O)Nc4nc5ccccc5n4CCCN(C)C)cc3n2[C@H]1C` [Example 141, (3R,4S)-N-{1-[3-(dimethylamino)propyl]-1H-benzimidazol-2-yl}-3,4-dimethyl-1-oxo-1,2,3,4-tetrahydropyrazino[1,2-a]indole-7-carboxamide], the IC50 is 13.7 nM.

On to `C[C@H]1NC(=O)c2cc3ccc(C(=O)Nc4cccnc4)cc3n2[C@H]1C` (relative stereo) [Example 179, Cis-3,4-dimethyl-1-oxo-N-(pyridin-3-yl)-1,2,3,4-tetrahydropyrazino[1,2-a]indole-7-carboxamide], for which the IC50 came out at 45 nM. The result for `CC(C)(C)c1cc(NC(=O)c2ccc3cc4n(c3c2)CCCNC4=O)sn1` [Example 3, N-(3-tert-butyl-1,2-thiazol-5-yl)-1-oxo-2,3,4,5-tetrahydro-1H-[1,4]diazepino[1,2-a]indole-8-carboxamide] reads 240 nM. Next, `Cn1cc(NC(=O)c2ccc3cc4n(c3c2)CCCNC4=O)nc1C(=O)NC1CCCC1` [Example 232, N-[2-(cyclopentylcarbamoyl)-1-methyl-1H-imidazol-4-yl]-1-oxo-2,3,4,5-tetrahydro-1H-[1,4]diazepino[1,2-a]indole-8-carboxamide]: 9 nM. Next, `CC(C)n1ncc2cc(NC(=O)c3ccc4cc5n(c4c3)C(C)CCNC5=O)cnc21` (stereo not shown) [Example 162, 5-methyl-1-oxo-N-[1-(propan-2-yl)-1H-pyrazolo[3,4-b]pyridin-5-yl]-2,3,4,5-tetrahydro-1H-[1,4]diazepino[1,2-a]indole-8-carboxamide]: 19 nM; `Cn1cc(NC(=O)c2ccc3cc4n(c3c2)CC(C)(C)CNC4=O)cn1` [Example 163, 4,4-dimethyl-N-(1-methyl-1H-pyrazol-4-yl)-1-oxo-2,3,4,5-tetrahydro-1H-[1,4]diazepino[1,2-a]indole-8-carboxamide]: 335 nM; `O=C(Nc1cc(-c2cccnc2)no1)c1ccc2cc3n(c2c1)CCCNC3=O` [Example 210, 1-oxo-N-[3-(pyridin-3-yl)-1,2-oxazol-5-yl]-2,3,4,5-tetrahydro-1H-[1,4]diazepino[1,2-a]indole-8-carboxamide]: 30 nM. `C[C@@H]1NC(=O)c2cc3ccc(C(=O)Nc4nc5ccccc5n4CCCN(C)C)cc3n2[C@H]1C` (relative stereo) [Example 91, N-{1-[3-(dimethylamino)propyl]-1H-benzimidazol-2-yl}-trans-3,4-dimethyl-1-oxo-1,2,3,4-tetrahydropyrazino[1,2-a]indole-7-carboxamide]: the IC50 is 8.5 nM. Next, `CCCc1cc(NC(=O)c2ccc3cc4n(c3c2)CCCNC4=O)on1` [Example 202, 1-oxo-N-(3-propyl-1,2-oxazol-5-yl)-2,3,4,5-tetrahydro-1H-[1,4]diazepino[1,2-a]indole-8-carboxamide]: 16 nM; `N#Cc1ccc2[nH]c(NC(=O)c3ccc4cc5n(c4c3)CCCNC5=O)nc2c1` [Example 41, N-(5-cyano-1H-benzimidazol-2-yl)-1-oxo-2,3,4,5-tetrahydro-1H-[1,4]diazepino[1,2-a]indole-8-carboxamide]: 4.9 nM. Regarding `COc1ccccc1NC(=O)c1ccc2cc3n(c2c1)CCCNC3=O` [Example 147, N-(2-methoxyphenyl)-1-oxo-2,3,4,5-tetrahydro-1H-[1,4]diazepino[1,2-a]indole-8-carboxamide], the IC50 worked out at 400 nM. The result for `O=C(Nc1cnn(Cc2ccccc2)c1)c1ccc2cc3n(c2c1)CC1(CCNCC1)CNC3=O` [Example 238, N-(1-benzyl-1H-pyrazol-4-yl)-1-oxo-2,3-dihydro-1H-spiro[1,4-diazepino[1,2-a]indole-4,4′-piperidine]-8-carboxamide] reads 350 nM. In the case of `C[C@H]1CNC(=O)c2cc3ccc(C(=O)Nc4cccnc4)cc3n2[C@H]1C` (relative stereo) [Example 150, Cis-4,5-dimethyl-1-oxo-N-(pyridin-3-yl)-2,3,4,5-tetrahydro-1H-[1,4]diazepino[1,2-a]indole-8-carboxamide], the IC50 worked out at 240 nM. With `O=C(Nc1cccc(N2CCOCC2)c1)c1ccc2cc3n(c2c1)CCCNC3=O` [Example 7, N-[3-(morpholin-4-yl)phenyl]-1-oxo-2,3,4,5-tetrahydro-1H-[1,4]diazepino[1,2-a]indole-8-carboxamide], the IC50 is 60 nM.

As to `O=C(Nc1cc(C2CCCCC2)no1)c1ccc2cc3n(c2c1)CCCNC3=O` [Example 209, N-(3-cyclohexyl-1,2-oxazol-5-yl)-1-oxo-2,3,4,5-tetrahydro-1H-[1,4]diazepino[1,2-a]indole-8-carboxamide], the concentration for half-maximal inhibition (IC50) is 39 nM.
